Measurements from patent US20250034108A1, “SODIUM CHANNEL BLOCKERS” (NOVARTIS AG, priority 2023, published 2025).

Tests used:
human Nav1.5 [1] = biological target: T1, human Nav1.5 (Homo sapiens (Human), UniProt Q14524); test: Qpatch automated patch-clamp, peak Nav1.5 current inhibition, 5-Hz AF-like assay (holding potential -85 mV); type: cell-based
Source text: (§1) Electrophysiology was used to measure the ionic currents in isolated living cells using automated patch-clamp recording, performed using an automated patch-clamp machine called Qpatch (Sophion Bioscience). Two different assay conditions were used to identify compounds with atrial-selective potential. The 5-Hz AF-like assay has more depolarized holding potential at −85 mV to mimic atrial resting membrane potential (RMP) and was used to identify compounds of strong rate-dependence. Active, rate-dependent compounds were then screened at 1 Hz (i.e., sinus rate) at the holding potential of −100 mV to mimic the ventricular scenario and help identify compounds with the largest potency separation or attenuation from the 5-Hz AF-like assay. Such compounds have the potential for treating AF without the QRS liability inherent to Class Ic drugs.
(§2) The sodium current conducted through a cell (via Nav1.5) or electrical signals were processed through a low-pass filter at 5 KHz, re-digitalized and acquired at 20 kHz. Series resistance was not compensated and leak subtraction was performed.
(§3) 1 to 3 million Chinese Hamster Ovary cells (also known as CHO-K1) stably expressing human Nav1.5 were seeded into […] culture flasks with 25 mL medium (consisting of Gibco Dulbecco's Modified Eagle Medium as a base medium with 1% MEM non-essential amino acids, 400 μg/mL Geneticin, 5 μg/mL puromycin and 10% fetal bovine serum) 48-72 hours prior to the experiments. On the day of the experiment, cells were washed once with phosphate-buffered saline (also known as PBS; Gibco) detached with Detachin™ (Genlantis), and re-suspended in CHO—S-SFM II media (Gibco) at 200,000 cells/mL. The CHO—S-SFM II was replaced with assay solutions prior to the assays. Whole-cell currents were recorded at room temperature in the whole-cell configuration. The external aqueous assay solution (pH=7.4; Osm=307-315) contained the following (the concentration for each component is expressed in parentheses in mM): NaCl (140 mM), KCl (4 mM), CaCl2) (2 mM), MgCl2 (1 mM), 4-(2-hydroxyethyl)-1-piperazineethanesulfonic acid, also known as HEPES (10 mM), and glucose (5 mM). The internal aqueous assay solution (pH=7.2; Osm=292-295) contained the following (the concentration for each component is expressed in parentheses in mM): CsF (110 mM), CsCl (10 mM), NaCl (10 mM), HEPES (10 mM), and ethylene glycolbis(β-aminoethyl ether)-N,N,N′,N′-tetraacetic acid, also known as EGTA (10 mM).
To assess peak Nav1.5 current inhibition in an atrial fibrillation-mimicking condition (Nav1.5 IC50 (5 Hz, AF-like rate) (μM)), compounds were first prepared at 10 mM in DMSO, and cells were pre-incubated with test compounds at each concentration for 3 min. in an ascending order of 0, 0.37, 1.1, 3.3, 10 and 30 μM. An atrial action potential-like protocol consisting of a voltage ramp (+10 mV to −85 mV for a 150 ms duration and a holding potential at −85 mV) was then applied to cells at 5 Hz for 12 s until no further current change or inhibition was observed. The percent inhibition (expressed as ([Iafter compound treatment/Ibefore compound treatment]×100%) is calculated by normalizing the peak current amplitude at the last pulse of each of the 6 compound concentrations by the amplitude before exposure to the test compound. The compiled data was further normalized by vehicle control (DMSO) to account for Nav1.5 current run-down, and IC50 was calculated by Matlab (MathWorks, USA).

human Nav1.5 [2] = biological target: T1, human Nav1.5; test: Qpatch automated patch-clamp, peak Nav1.5 current inhibition, 1 Hz with 50 nM ATX-II (holding potential -100 mV); type: cell-based; conditions: CHO-K1 cells stably expressing human Nav1.5, read-out: Nav1.5 IC50 (1 Hz, ATXII)
Source text: as §1, §2, §3
To assess peak Nav1.5 current inhibition mimicking a ventricular condition at sinus rate with or without ATX-II (Nav1.5 IC50 (1 Hz, ATXII) (μM) or (1 Hz, Sinus Rate) (μM)), compounds were first prepared at 10 mM in DMSO, and cells were pre-incubated with test compounds at each concentration for 3 min. in an ascending order of 0, 0.37, 1.1, 3.3, 10 and 30 uM. In the assay with ATX-II (Alomone Labs), 50 nM ATX-II was included during the 3-min. compound incubation. A square pulse (−10 mV; 400 ms and a holding potential at −100 mV) was run at 1 Hz for 25 s until no further inhibition or Nav1.5 current change was observed. The percent inhibition (expressed as ([Iafter compound treatment/Ibefore compound treatment]×100%) is calculated by normalizing the peak current amplitude at the last pulse of each of the 6 compound concentrations by the amplitude before exposure to the test compound. The compiled data was further normalized by vehicle control (DMSO) to account for Nav1.5 current run-down, and IC50 was calculated by Matlab (MathWorks, USA).

[3] = CHO-K1 cells stably expressing human Nav1.5, holding potential -85 mV, Table 5, read-out: Nav1.5 IC50 (5 Hz, AF Rate)
[4] = CHO-K1 cells stably expressing human Nav1.5, Table 6, Examples 63-90, read-out: Nav1.5 IC50 (5 Hz, AF Rate)

T1 sequence (Q14524 whole entry): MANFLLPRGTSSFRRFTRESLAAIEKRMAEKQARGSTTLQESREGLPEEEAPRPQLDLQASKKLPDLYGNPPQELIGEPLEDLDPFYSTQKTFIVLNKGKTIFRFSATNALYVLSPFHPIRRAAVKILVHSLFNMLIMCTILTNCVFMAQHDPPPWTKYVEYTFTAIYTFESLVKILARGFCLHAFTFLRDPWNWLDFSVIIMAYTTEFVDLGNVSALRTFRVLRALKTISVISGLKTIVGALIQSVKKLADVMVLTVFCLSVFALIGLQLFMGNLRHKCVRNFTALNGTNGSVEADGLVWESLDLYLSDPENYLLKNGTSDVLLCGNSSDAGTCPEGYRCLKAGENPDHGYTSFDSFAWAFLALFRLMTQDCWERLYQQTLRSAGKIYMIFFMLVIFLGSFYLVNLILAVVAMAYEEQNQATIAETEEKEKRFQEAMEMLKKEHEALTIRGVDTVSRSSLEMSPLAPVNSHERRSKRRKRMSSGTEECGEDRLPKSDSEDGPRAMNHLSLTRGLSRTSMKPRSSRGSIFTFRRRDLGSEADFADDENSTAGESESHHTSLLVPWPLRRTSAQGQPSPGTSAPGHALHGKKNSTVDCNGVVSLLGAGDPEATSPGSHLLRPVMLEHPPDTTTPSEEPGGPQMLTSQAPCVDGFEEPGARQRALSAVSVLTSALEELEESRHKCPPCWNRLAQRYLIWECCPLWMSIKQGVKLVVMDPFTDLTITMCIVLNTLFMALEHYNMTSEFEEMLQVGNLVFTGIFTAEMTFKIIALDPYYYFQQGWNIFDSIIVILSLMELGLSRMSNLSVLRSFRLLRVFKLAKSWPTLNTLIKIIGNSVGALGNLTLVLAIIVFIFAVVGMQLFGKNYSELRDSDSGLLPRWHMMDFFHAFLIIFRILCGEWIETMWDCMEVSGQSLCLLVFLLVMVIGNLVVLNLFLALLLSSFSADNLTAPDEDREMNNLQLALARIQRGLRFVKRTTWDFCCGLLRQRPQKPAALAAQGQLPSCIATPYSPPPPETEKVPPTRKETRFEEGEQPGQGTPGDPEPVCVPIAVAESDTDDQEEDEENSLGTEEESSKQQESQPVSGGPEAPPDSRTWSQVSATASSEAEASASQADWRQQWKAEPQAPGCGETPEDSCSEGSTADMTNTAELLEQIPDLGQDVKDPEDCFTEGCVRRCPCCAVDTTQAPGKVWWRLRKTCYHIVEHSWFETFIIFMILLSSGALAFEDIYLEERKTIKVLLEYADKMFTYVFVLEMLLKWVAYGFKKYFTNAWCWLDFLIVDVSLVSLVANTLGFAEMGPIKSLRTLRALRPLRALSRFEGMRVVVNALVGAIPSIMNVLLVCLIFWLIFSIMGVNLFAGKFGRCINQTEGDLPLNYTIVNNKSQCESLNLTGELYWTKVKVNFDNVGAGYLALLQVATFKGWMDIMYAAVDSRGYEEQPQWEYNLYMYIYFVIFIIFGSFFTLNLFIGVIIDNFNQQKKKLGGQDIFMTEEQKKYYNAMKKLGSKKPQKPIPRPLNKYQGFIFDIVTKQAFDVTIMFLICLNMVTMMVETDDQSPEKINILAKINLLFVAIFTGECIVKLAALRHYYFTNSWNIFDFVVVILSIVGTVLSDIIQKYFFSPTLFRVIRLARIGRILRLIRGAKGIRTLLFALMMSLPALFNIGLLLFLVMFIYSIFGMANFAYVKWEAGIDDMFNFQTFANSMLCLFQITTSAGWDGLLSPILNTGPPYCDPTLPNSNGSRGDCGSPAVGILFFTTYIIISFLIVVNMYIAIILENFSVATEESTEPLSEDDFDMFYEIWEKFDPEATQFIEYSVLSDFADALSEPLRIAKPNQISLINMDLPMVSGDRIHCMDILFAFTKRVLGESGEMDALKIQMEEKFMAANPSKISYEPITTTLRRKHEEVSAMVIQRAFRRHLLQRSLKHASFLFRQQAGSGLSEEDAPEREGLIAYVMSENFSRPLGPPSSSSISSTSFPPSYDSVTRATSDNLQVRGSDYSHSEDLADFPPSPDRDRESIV

Row | SMILES | IC50 (human Nav1.5 [1]; [3]) [µM] | IC50 (human Nav1.5 [2]) [µM] | IC50 (human Nav1.5 [1]; [4]) [µM]
1 | NS(=O)(=O)CC(O)c1cccc(-c2ccn(Cc3cc(OC(F)(F)F)ccc3F)n2)n1 (racemic) [Example 36, 2-(6-(1-(2-fluoro-5-(trifluoromethoxy)benzyl)-1H-pyrazol-3-yl)pyridin-2-yl)-2-hydroxyethane-1-sulfonamide] | 3.7 | > 30 | –
2 | NS(=O)(=O)CC(O)(c1cccc(-c2ccn(Cc3cc(OC(F)(F)F)ccc3F)n2)n1)C(F)(F)F (racemic) [Example 39, 3,3,3-trifluoro-2-(6-(1-(2-fluoro-5-(trifluoromethoxy)benzyl)-1H-pyrazol-3-yl)pyridin-2-yl)-2-hydroxypropane-1-sulfonamide] | 4.4 | > 30 | –
3 | CC(O)(CS(N)(=O)=O)c1ccc(Cl)c(-c2nnn(Cc3cc(OC(F)(F)F)ccc3F)n2)n1 (racemic) [Rac-27 + 28, 2-(5-chloro-6-(2-(2-fluoro-5-(trifluoromethoxy)benzyl)-2H-tetrazol-5-yl)pyridin-2-yl)-2-hydroxypropane-1-sulfonamide] | 1.1 | 16 | –
4 | CC(O)(CS(N)(=O)=O)c1cccc(-c2cnn(Cc3cc(OC(F)(F)F)ccc3F)n2)n1 (racemic) [Rac-61 + 62] | 3.4 | > 30 | –
5 | CC(O)(CS(N)(=O)=O)c1cccc(-c2nnn(Cc3cc(C(F)(F)F)ccc3F)n2)n1 (single isomer, unassigned) [Example 19, (R or S)-2-(6-(2-(2-fluoro-5-(trifluoromethyl)benzyl)-2H-tetrazol-5-yl)pyridin-2-yl)-2-hydroxypropane-1-sulfonamide] | 5 | 14 | –
6 | CC(O)(CS(N)(=O)=O)c1cccc(-c2nnn(Cc3cc(C(F)(F)F)ccc3F)n2)n1 (single isomer, unassigned) [Example 20, (R or S)-2-(6-(2-(2-fluoro-5-(trifluoromethyl)benzyl)-2H-tetrazol-5-yl)pyridin-2-yl)-2-hydroxypropane-1-sulfonamide] | 7.9 | 23 | –
7 | CC(O)(CS(N)(=O)=O)c1cccc(-c2nnn(Cc3cc(Cl)ccc3F)n2)n1 (single isomer, unassigned) [Example 21, (R or S)-2-(6-(2-(5-chloro-2-fluorobenzyl)-2H-tetrazol-5-yl)pyridin-2-yl)-2-hydroxypropane-1-sulfonamide] | 6.3 | > 30 | –
8 | CC(O)(CS(N)(=O)=O)c1cccc(-c2nnn(Cc3cc(Cl)ccc3F)n2)n1 (single isomer, unassigned) [Example 22, (R or S)-2-(6-(2-(5-chloro-2-fluorobenzyl)-2H-tetrazol-5-yl)pyridin-2-yl)-2-hydroxypropane-1-sulfonamide] | 8.4 | 22 | –
9 | CC(O)(CS(N)(=O)=O)c1ccc(Cl)c(-c2nnn(Cc3cc(OC(F)(F)F)ccc3F)n2)n1 (single isomer, unassigned) [Example 27, (R or S)-2-(5-chloro-6-(2-(2-fluoro-5-(trifluoromethoxy)benzyl)-2H-tetrazol-5-yl)pyridin-2-yl)-2-hydroxypropane-1-sulfonamide] | 0.8 | 4.1 | –
10 | CC(O)(CS(N)(=O)=O)c1ccc(Cl)c(-c2nnn(Cc3cc(OC(F)(F)F)ccc3F)n2)n1 (single isomer, unassigned) [Example 28, (R or S)-2-(5-chloro-6-(2-(2-fluoro-5-(trifluoromethoxy)benzyl)-2H-tetrazol-5-yl)pyridin-2-yl)-2-hydroxypropane-1-sulfonamide] | 0.7 | 3.2 | –
11 | CC(O)(CS(N)(=O)=O)c1cccc(-c2ccn(Cc3cc(OC(F)(F)F)ccc3F)n2)n1 (single isomer, unassigned) [Example 37, (R or S)-2-(6-(1-(2-fluoro-5-(trifluoromethoxy)benzyl)-1H-pyrazol-3-yl)pyridin-2-yl)-2-hydroxypropane-1-sulfonamide] | 1.3 | 14 | –
12 | CC(O)(CS(N)(=O)=O)c1cccc(-c2ccn(Cc3cc(OC(F)(F)F)ccc3F)n2)n1 (single isomer, unassigned) [Example 38, (R or S)-2-(6-(1-(2-fluoro-5-(trifluoromethoxy)benzyl)-1H-pyrazol-3-yl)pyridin-2-yl)-2-hydroxypropane-1-sulfonamide] | 4.3 | > 30 | –
13 | CC(O)(CS(N)(=O)=O)c1cccc(-c2nc(Cc3cc(OC(F)(F)F)ccc3F)no2)n1 (single isomer, unassigned) [Example 57, (R or S)-2-(6-(3-(2-fluoro-5-(trifluoromethoxy)benzyl)-1,2,4-oxadiazol-5-yl)pyridin-2-yl)-2-hydroxypropane-1-sulfonamide] | 3.6 | 27 | –
14 | C[C@](O)(CS(N)(=O)=O)c1cccc(-c2nnn(Cc3cccc(OC(F)(F)F)c3F)n2)n1 [Example 75] | – | – | 4.8
15 | COc1ccc(F)c(Cn2nnc(-c3cccc([C@@](C)(O)CS(N)(=O)=O)n3)n2)c1 [Example 76] | – | – | 17
16 | C[C@](O)(CS(N)(=O)=O)c1cccc(-c2nnn(Cc3cc(OC(F)(F)F)ccc3Cl)n2)n1 [Example 77] | – | – | 13
17 | C[C@](O)(CS(N)(=O)=O)c1cccc(-c2nnn(Cc3cc(Cl)ccc3Cl)n2)n1 [Example 78] | – | – | 10
18 | C[C@](O)(CS(N)(=O)=O)c1cccc(-c2nnn(Cc3c(F)cccc3C(F)(F)F)n2)n1 [Example 79] | – | – | 13
19 | C[C@](O)(CS(N)(=O)=O)c1cccc(-c2nnn(Cc3ccc(Cl)c(C(F)(F)F)c3)n2)n1 [Example 80] | – | – | 14
20 | C[C@](O)(CS(N)(=O)=O)c1cccc(-c2nnn(Cc3cc(Cl)c(F)cc3F)n2)n1 [Example 81] | – | – | 21
21 | C[C@](O)(CS(N)(=O)=O)c1cccc(-c2nnn(Cc3cccc(OC(F)(F)F)c3)n2)n1 [Example 82] | – | – | 7.3
22 | C[C@](O)(CS(N)(=O)=O)c1cccc(-c2nnn(Cc3cc(C(F)(F)F)cc(C(F)(F)F)c3)n2)n1 [Example 83] | – | – | 18
23 | C[C@](O)(CS(N)(=O)=O)c1cccc(-c2nnn(Cc3cc(OC(F)F)ccc3F)n2)n1 [Example 84] | – | – | 14
24 | C[C@](O)(CS(N)(=O)=O)c1cccc(-c2nnn(Cc3c(Cl)cccc3Cl)n2)n1 [Example 85] | – | – | 5.2
25 | C[C@](O)(CS(N)(=O)=O)c1cccc(-c2nnn(Cc3cc(OC(F)(F)F)ccc3Br)n2)n1 [Example 86] | – | – | 6.3
26 | C[C@](O)(CS(N)(=O)=O)c1cccc(-c2nnn(Cc3c(C(F)(F)F)ccc(Cl)c3Cl)n2)n1 [Example 87] | – | – | 9.3
27 | C[C@](O)(CS(N)(=O)=O)c1cccc(-c2nnn(Cc3cc(Cl)cc(OC(F)(F)F)c3)n2)n1 [Example 88] | – | – | 28
28 | C[C@](O)(CS(N)(=O)=O)c1cccc(-c2nnn(Cc3cc(Cl)ccc3C(F)(F)F)n2)n1 [Example 89] | – | – | 27
29 | C[C@](O)(CS(N)(=O)=O)c1cccc(-c2nnn(Cc3cc(Cl)cc(Cl)c3Cl)n2)n1 [Example 90] | – | – | 8.9
